Molecular target: T1, mGlu5bR (metabotropic glutamate receptor type 5) (Rattus norvegicus, UniProt P31424)
T1 construct: gene Grm5; mGlu5bR^NL: NanoLuc fused at the N terminus of rat mGlu5bR, expressed in HEK293T cells
Test: NanoBRET saturation binding in living HEK293T cells, displaced by […] MTEP; also NFAT-luciferase NAM assay
Type: cell-based

T1 sequence (P31424 21-1203): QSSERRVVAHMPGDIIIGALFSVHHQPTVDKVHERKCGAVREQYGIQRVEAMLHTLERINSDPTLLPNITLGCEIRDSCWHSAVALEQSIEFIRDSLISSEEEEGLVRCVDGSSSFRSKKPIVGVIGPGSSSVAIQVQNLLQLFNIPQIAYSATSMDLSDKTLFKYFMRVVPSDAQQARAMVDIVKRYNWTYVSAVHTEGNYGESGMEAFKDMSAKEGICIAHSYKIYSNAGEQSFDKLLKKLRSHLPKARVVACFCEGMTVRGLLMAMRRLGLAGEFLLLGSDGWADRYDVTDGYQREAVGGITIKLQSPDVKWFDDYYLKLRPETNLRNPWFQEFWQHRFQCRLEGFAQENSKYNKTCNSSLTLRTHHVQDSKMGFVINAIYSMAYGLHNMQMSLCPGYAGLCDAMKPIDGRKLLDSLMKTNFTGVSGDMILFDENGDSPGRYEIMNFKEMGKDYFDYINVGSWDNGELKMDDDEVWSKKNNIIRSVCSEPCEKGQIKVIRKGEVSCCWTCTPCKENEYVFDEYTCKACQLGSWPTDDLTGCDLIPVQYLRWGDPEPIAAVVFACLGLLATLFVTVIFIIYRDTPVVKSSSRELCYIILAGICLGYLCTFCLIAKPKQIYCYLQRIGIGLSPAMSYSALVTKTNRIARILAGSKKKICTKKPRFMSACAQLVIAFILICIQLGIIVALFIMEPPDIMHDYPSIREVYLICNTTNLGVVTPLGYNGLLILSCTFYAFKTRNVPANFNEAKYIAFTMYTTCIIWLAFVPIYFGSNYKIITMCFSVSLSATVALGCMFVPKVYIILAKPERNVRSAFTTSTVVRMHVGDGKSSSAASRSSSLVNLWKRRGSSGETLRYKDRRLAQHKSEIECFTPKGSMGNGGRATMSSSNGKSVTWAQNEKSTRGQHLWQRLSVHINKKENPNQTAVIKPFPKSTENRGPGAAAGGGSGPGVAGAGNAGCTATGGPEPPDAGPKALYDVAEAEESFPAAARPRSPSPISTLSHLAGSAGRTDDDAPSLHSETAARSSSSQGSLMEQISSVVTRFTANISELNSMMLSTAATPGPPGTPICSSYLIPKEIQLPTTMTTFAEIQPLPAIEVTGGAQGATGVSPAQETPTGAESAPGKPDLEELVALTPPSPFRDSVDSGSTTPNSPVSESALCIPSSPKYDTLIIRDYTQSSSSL

Row | SMILES | Kd [nM]
1 | COc1ccc(C2=[N+]3C(=C(CCCCc4cn(CCOCCOCCOCCOCCOCCNC(=O)COc5cncc(C#Cc6csc(C)n6)c5)nn4)c4ccc(-c5ccc(OC)cc5)n4[B-]3(F)F)C=C2)cc1 [4a, N-(17-(4-(4-(5,5-difluoro-3,7-bis(4-methoxyphenyl)-5H-4λ^4,5λ^4-dipyrrolo [1,2-c:2’,1’-f][1,3,2]diazaborinin-10-yl)butyl)-1H-1,2,3-triazol-1-yl)-3,6,9,12,15-pentaoxaheptadecyl)-2-((5-((2-methylthiazol-4-yl)ethynyl)pyridin-3-yl)oxy)acetamide] | 840 ± 740
2 | COc1ccc(C2=[N+]3C(=C(CCCCc4cn(CCCCCCCCN(C)CCCCCNC(=O)COc5cncc(C#Cc6csc(C)n6)c5)nn4)c4ccc(-c5ccc(OC)cc5)n4[B-]3(F)F)C=C2)cc1 [4e, N-(5-((8-(4-(4-(5,5-difluoro-3,7-bis(4-methoxyphenyl)-5H-4λ^4,5λ^4-dipyrrolo[1,2-c:2’,1’-f][1,3,2]diazaborinin-10-yl)butyl)-1H-1,2,3-triazol-1-yl)octyl)(methyl)amino)pentyl)-2-((5-((2-methylthiazol-4-yl)ethynyl)pyridin-3-yl)oxy)acetamide] | 1400 ± 1200
